The results in this text go back to patent US20250340543A1, “GPR84 ANTAGONISTS AND USES THEREOF” (Liminal BioSciences Limited, priority 2021, published 2025).

Bounds are passed on as bounds.

GPR84, sequence (Q9NQS5 whole entry): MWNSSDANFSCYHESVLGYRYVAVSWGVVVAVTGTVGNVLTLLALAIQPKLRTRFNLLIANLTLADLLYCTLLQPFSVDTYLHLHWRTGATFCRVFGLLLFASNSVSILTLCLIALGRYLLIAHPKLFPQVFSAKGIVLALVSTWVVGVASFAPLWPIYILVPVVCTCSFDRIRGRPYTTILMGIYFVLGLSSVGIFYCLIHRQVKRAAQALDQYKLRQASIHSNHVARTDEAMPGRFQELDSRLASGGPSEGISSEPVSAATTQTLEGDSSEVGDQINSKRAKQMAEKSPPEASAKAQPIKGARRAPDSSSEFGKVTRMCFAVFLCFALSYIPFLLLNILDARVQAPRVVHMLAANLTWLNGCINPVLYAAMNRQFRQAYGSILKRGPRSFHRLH

The first test has as its target GPR84 (Homo sapiens (Human), UniProt Q9NQS5). As to the kind of experiment: Gai biosensor BRET assay (GPR84-mediated activation of Gai, antagonist mode against agonist ZQ-16). It is filed as cell-based. Conditions: HEK293 cells, 200 nmol/L GPR84 agonist ZQ-16, read-out: hGPR84 IC50. The source says: Background—The following assays can be used for determination of GPR84 activation in living HEK293 cells. […] The Gai biosensor consists of a Rluc8-tagged Gαi2 subunit, a GFP10-tagged Gγ2 subunit, and an untagged Gβ1. […] Moreover, signaling functions of GPCRs are tightly regulated by endocytosis, the targeting of receptors to endosomes and their sorting to lysosomes or recycling to the plasma membrane. […] Agonist stimulation of GPR84—Rluc8 leads to trafficking of the receptor to EEs, and ensuing increase of the donor concentration relative to the rGFP-FYVE acceptor anchored in the same cellular compartment, and thus results in an increase in BRET signal.
Plasmids—The cDNA clones for human GPR84 receptor, human Gαi2, Gβ1, and Gγ2 were obtained from the cDNA Resource Center (www.cdna.org). GFP10 (F64L, S147P, S202F and H231L variant of Aequorea victoria Green Fluorescent Protein) gBlocks gene fragments (Integrated DNA Technologies, IA) and linker were inserted in frame at the N-terminus of human Gγ2. Rluc8 (A55T, C124A, S130A, K136R, A143M, M185V, M253L, and S287L variant of the Renilla renformis luciferase) gBlocks gene fragment was inserted with linkers in frame in between residues 91 and 92 of Gαi2 or at the C-terminus of GPR84. The FYVE domain from human endofin (residues Q739 to K806) attached in frame at the C terminus of a humanized Renilla GFP (rGFP), were synthesized as gBlocks gene fragments.
Bioluminescence Resonance Energy Transfer (BRET) Measurement—HEK293 cells were transfected with GPR84—Rluc8 and rGFP-FYVE for the EEs trafficking biosensor or with GPR84, Gαi2—Rluc8, GFP10-Gγ2, and Gβ1 for the Gai biosensor. The following day, transiently transfected cells were seeded in 96-well white clear bottom microplates coated with poly-D-lysine and left in culture for 24 hours. Cells were washed once with Tyrode's buffer (140 mmol/L NaCl, 1 mmol/L CaCl2, 2.7 mmol/L KCl, 0.49 mmol/L MgCl2, 0.37 mmol/L NaH2PO4, 5.6 mmol/L glucose, 12 mmol/L NaHCO3, and 25 mmol/L HEPES, pH 7.5) before performing assays in Tyrode's buffer. Test compounds were incubated with cells for 5 (Gai) or 15 (EEs) minutes at 37° C. before addition of 200 nmol/L of the GPR84 agonist ZQ-16 (2-(Hexylthio)-6-hydroxy-4(3H)-pyrimidinone) for 5 minutes at room temperature (Gai) or 30 minutes at 37° C. (EEs). The Rluc8 substrate coelenterazine 400A (Prolume, Lakeside, AZ) was added at a final concentration of […] and BRET readings were collected using an Infinite M1000 microplate reader (Tecan, Morrisville, NC). BRET^2 readings between Rluc8 and GFP10 or rGFP were collected by sequential integration of the signals detected in the 370 to 450 nm (Rluc8) and 510 to 540 nm (GFP10, rGFP) windows. The BRET signal was calculated as the ratio of light emitted by acceptor (GFP10, rGFP) over the light emitted by donor (Rluc8). The values were corrected to net BRET by subtracting the background BRET signal obtained in cells transfected with Rluc8 constructs alone. Ligand-promoted net BRET values were calculated by subtracting vehicle-induced net BRET from ligand-induced net BRET.
For the compound `Cc1cc(OCc2ccccn2)cc(=O)n1[C@H](C)c1ccc(C#CC2CC2)cc1` [Compound I-290], the IC50 is under 5 µM.

On to `Cc1cc(OC[C@H]2COCCO2)cc(=O)n1[C@H](C)c1ccc(C#CC2CC2)cc1` (stereo in doubt) [Compound I-7], for which the IC50 is under 5 µM.

The same test, now with this note: compound tested at 1 μM (concentration code A*).
In turn, `O=C(NCC1CCCO1)N1Cc2ccc(C#CC3CC3)cc2C1` (stereo not drawn) [Compound I-184] gave an inhibition at 1 µM of under 25%.

Staying with this test, now noted: compound tested at 2 μM (concentration code A).
For the compound `Cc1cc(OCc2ccccn2)cc(=O)n1[C@H](C)c1ccc(C#CC2CC2)cc1` [Compound I-290], the inhibition at 2 µM was over 75%.

Regarding `Cc1ccc(C#CC2CC2)cc1Cn1c(C)cc(OCc2ncccn2)cc1=O` [Compound I-289], the inhibition at 2 µM was under 25%.

As to `Cc1cc(OCc2cocn2)cc(=O)n1[C@H](C)c1ccc(C#CC2CC2)cc1` [Compound I-284], the inhibition at 2 µM is over 75%.

Staying with this test, now noted: compound tested at 5 μM (concentration code C).
Compound `Cc1ccc(-c2ccc(-c3ccc4oc(=O)n(CC5CCCCO5)c4c3)cc2)cn1` (stereo not drawn) [Compound I-168] yielded an inhibition at 5 µM of under 25%.

Staying with this test, now noted: compound tested at 10 μM (concentration code D).
For `Cc1cc(OCC2COCCO2)cc(=O)n1C(C)c1cc(C#CC2CC2)cs1` (stereo not drawn) [Compound I-221], the inhibition at 10 µM is 25 to 50%.

As for `Cc1cc(OCC(F)(F)F)ccc1-c1cncc(OCC2CCCCO2)c1` (stereo not drawn) [Compound I-56], the inhibition at 10 µM fell in the range of 25 to 50%.

For `Cc1cc(OCc2ncccn2)cc(=O)n1Cc1cc(C#CC2CC2)ccn1` [Compound I-266], the inhibition at 10 µM is under 25%.

On to `Cc1cc(OCc2cn(C)cn2)cc(=O)n1[C@H](C)c1ccc(C#CC2CC2)cc1` [Compound I-313], for which the inhibition at 10 µM is over 75%.

Regarding `Cc1cc(OCc2ncccn2)cc(=O)n1[C@H](C)c1ccc(C#CC2CC2)cc1F` [Compound I-270], the inhibition at 10 µM is under 25%.

Consider `Cc1cc(OCC2COCCO2)cc(=O)n1C(C)c1ccc(C#CC2CC2)cn1` (stereo not drawn) [Compound I-76], for which the inhibition at 10 µM was under 25%.

Turning to `CCCOc1ccc(C(C)n2c(C)cc(OCc3ncccn3)cc2=O)cc1` (stereo not drawn) [Compound I-343], the inhibition at 10 µM was under 25%.

In turn, `Cc1cc(OCC2COCCO2)cc(=O)n1Cc1cccc(C#CC(C)(C)C)c1` (stereo not drawn) [Compound I-96] gave an inhibition at 10 µM of under 25%.

Take `Cc1cc(OCC2COCCO2)cc(=O)n1[C@H](CO)c1ccc(C#CC2CC2)cc1` (stereo in doubt) [Compound I-147]: the inhibition at 10 µM lay within 25 to 50%.

For the compound `Cc1cnc(COc2cc(C)n([C@H](C)c3ccc(C#CC4CC4)cc3)c(=O)c2)nc1` [Compound I-279], the inhibition at 10 µM was over 75%.

In turn, `CC(c1ccc(C#CC2CC2)cc1)n1ccc(OCC2COCCO2)cc1=O` (stereo not drawn) [Compound I-13] displayed an inhibition at 10 µM of over 75%.

Take `Cc1cc(OCC2OCC(C)(C)CO2)cc(=O)n1[C@H](C)c1ccc(C#CC2CC2)cc1` [Compound I-227]: the inhibition at 10 µM lay in the range of 50 to 75%.

Consider `Cc1cc(OCc2ncccn2)cc(=O)n1C(C)c1cc(F)c(C#CC2CC2)c(F)c1` (stereo not drawn) [Compound I-362], for which the inhibition at 10 µM is over 75%.

Consider `Cc1cc(OCC2CCOCC2)cc(=O)n1[C@H](C)c1ccc(C#CCO)cc1` (stereo in doubt) [Compound I-61], for which the inhibition at 10 µM fell in the range of 25 to 50%.

`Cc1cc(OCc2ncccn2)cc(=O)n1C(C)c1ccc(C#CC2CC2)cn1` (stereo not drawn) [Compound I-253] registered an inhibition at 10 µM of 50 to 75%.

Regarding `Cc1cc(OC[C@H]2COCCO2)cc(=O)n1[C@H](C)c1ccc(C#CC2CC2)cc1` (stereo in doubt) [Compound I-7], the inhibition at 10 µM is over 75%.

The same test, now with this note: compound tested at 25 μM (concentration code G).
In turn, `Cc1ccc(-c2ccc(-c3cc(OCC4COCCO4)cc(Cl)n3)c(C)c2)cn1` (stereo not drawn) [Compound I-93] registered an inhibition at 25 µM of under 25%.

Turning to `COc1ccc(CN2CCN(c3cc(OCC4COCCO4)nc(=O)n3C)CC2)cc1` (stereo not drawn) [Compound I-81], the inhibition at 25 µM is under 25%.

`O=c1nc(OCC2COCCO2)cc(-c2ccc(OCC(F)(F)F)cn2)[nH]1` (stereo not drawn) [Compound I-102] showed an inhibition at 25 µM of under 25%.

Turning to `COc1cc(OCC2COCCO2)nc(-c2ccc(OCc3ccccn3)cc2C)n1` (stereo not drawn) [Compound I-134], the inhibition at 25 µM is under 25%.

As for `CN1CCN(c2cc(OCC3COCCO3)nc(=O)n2C)CC1` (stereo not drawn) [Compound I-137], the inhibition at 25 µM is under 25%.

`Cc1ccc(-c2ccc(Cc3cccc(OCC4COCCO4)c3)cc2)cn1` (stereo not drawn) [Compound I-176] gave an inhibition at 25 µM of under 25%.

`Cc1cc(C#CC2CC2)ccc1Cn1c(C)cc(OCC2COCCO2)cc1=O` (stereo not drawn) [Compound I-101] showed an inhibition at 25 µM of under 25%.

For orientation: IC50 means the midpoint of a concentration-inhibition curve. The inhibition is how much of the control response was suppressed.
